From patent US10005808B2, “Crystal of alkali metal N-acetylneuraminate anhydrate, and process for producing same” (KYOWA HAKKO BIO CO., LTD., priority 2014, dated 2018)

What was measured:
[1] = Weight change (moisture absorption) under an atmosphere of 25° C. and humidity 66%; type: physicochemical; details: humidity 66%; for weight increase due to moisture absorption (in words): up to 24 hours
Description: With respect to the crystal of NeuAc sodium salt anhydrate and the noncrystalline amorphous of NeuAc sodium salt acquired in Reference Example 1, the weight change under an atmosphere of 25° C. and humidity 66% was compared, and the results are shown in Table 3.
With respect to the crystal of NeuAc potassium salt anhydrate and the noncrystalline amorphous of NeuAc potassium salt acquired in Reference Example 2, the weight change under an atmosphere of 25° C. and humidity 66% was compared, and the results are shown in Table 10.

[2] = normal temperature / storage; cited from earlier work
[3] = Measurement of degree of solubility in water (HPLC of supernatant); type: physicochemical; details: various temperatures, FIG. 5 / FIG. 10, result in words
Description: (2) Measurement of Degree of Solubility
A crystal of NeuAc sodium salt anhydrate, a crystal of NeuAc potassium salt anhydrate, or a crystal of known NeuAc dihydrate was added to water adjusted to respective temperatures until each crystal was caused to remain undissolved and after keeping the solution for a sufficient time under stirring, the supernatant containing no crystal was collected and measured for the concentration by using the following HPLC analysis conditions.
Guard column: Shodex SUGAR SH-G ϕ6.0×50 mm
Column: SUGAR SH1011 ϕ8.0×300 mm×2 columns in series
Column temperature: 60° C.
Buffer: an aqueous 0.005 mol/L sulfuric acid solution
Flow velocity: 0.6 mL/min
Detector: UV detector (wavelength: 210 nm)
The degrees of solubility in water of the crystal of NeuAc sodium salt anhydrate obtained above and a crystal of NeuAc dihydrate are illustrated in FIG. 5.
The degrees of solubility in water of the crystal of NeuAc potassium salt anhydrate obtained above and a crystal of NeuAc dihydrate are illustrated in FIG. 10.

[4] = pH of aqueous solution of the crystal at 100 g/L; type: physicochemical
Description: As for the pH, an aqueous solution at 100 g/L in terms of NeuAc sodium salt was measured.
As for the pH, an aqueous solution at 100 g/L in terms of NeuAc potassium salt was measured.

[5] = Degree of coloration when stored in a closed system at 60° C. (transmittance T% 430 nm); type: physicochemical
Description: (§1) With respect to the crystal of NeuAc sodium salt anhydrate and a crystal of known NeuAc dihydrate, the degree of coloration when stored in a closed system at 60° C. was compared, and the results are shown in Table 7. The degree of coloration is expressed by transmittance T % 430 nm=100×10^−A (A=Abs: 430 nm, 1 cm).
as §1, with “potassium” for “sodium”, “14.” for “7.”

[6] = normal temperature; cited from earlier work

Row | Structure (SMILES) | storage stability (in words) [2] | degree of solubility in water compared with crystal of known NeuAc dihydrate [3] | coloration during storage compared with crystal of known NeuAc dihydrate (in words) [5] | Transmittance T % 430 nm ([5]; elapsed time 0 days, Table 7) | Transmittance T % 430 nm ([5]; elapsed time 3 days, Table 7) | Transmittance T % 430 nm ([5]; elapsed time 6 days, Table 7) | Transmittance T % 430 nm ([5]; elapsed time 0 days, Table 14) | Transmittance T % 430 nm ([5]; elapsed time 3 days, Table 14) | Transmittance T % 430 nm ([5]; elapsed time 6 days, Table 14) | further results
1 | CC(=O)N[C@H]1[C@H]([C@H](O)[C@H](O)CO)OC(O)(C(=O)[O-])C[C@@H]1O.[K+] (some centres unmarked) [Reference Example 2, NeuAc potassium salt, reference compound] | – | – | – | – | – | – | – | – | – | weight increase due to moisture absorption (in words) ([1]; listed as noncrystalline amorphous of NeuAc potassium salt, potassium salt): marked weight increase due to moisture absorption and deliquesced when 24 hours had passed
2 | CC(=O)N[C@H]1[C@H]([C@H](O)[C@H](O)CO)OC(O)(C(=O)[O-])C[C@@H]1O.O.O.O.[Na+] (some centres unmarked) [NeuAc sodium salt trihydrate] | high storage stability at normal temperature | – | – | – | – | – | – | – | – | –
3 | CC(=O)N[C@H]1[C@H]([C@H](O)[C@H](O)CO)O[C@](O)(C(=O)[O-])C[C@@H]1O.[Na+] [Crystal of sodium salt, NeuAc sodium salt anhydrate] | – | excellent solubility | extremely low | 99.98% | 100.0% | 100.0% | – | – | – | pH ([4]; aqueous solution at 100 g/L in terms of NeuAc sodium salt, listed as Example 1): 6.74; pH ([4]; aqueous solution at 100 g/L in terms of NeuAc sodium salt, listed as Example 2): 6.8; Rate of Weight Change ([1]; elapsed time 0 h, Table 3): 0.00%; Rate of Weight Change ([1]; elapsed time 3 h, Table 3): −0.04%; Rate of Weight Change ([1]; elapsed time 7 h, Table 3): −0.02%; Rate of Weight Change ([1]; elapsed time 24 h, Table 3): −0.04%; weight increase due to moisture absorption (in words) ([1]; listed as crystal of NeuAc sodium salt anhydrate): a weight increase was not recognized
4 | CC(=O)N[C@H]1[C@H]([C@H](O)[C@H](O)CO)O[C@](O)(C(=O)[O-])C[C@@H]1O.[Na+] [Reference Example 1, NeuAc sodium salt, reference compound] | – | – | – | – | – | – | – | – | – | weight increase due to moisture absorption (in words) ([1]; listed as noncrystalline amorphous of NeuAc sodium salt, sodium salt): marked weight increase due to moisture absorption and deliquesced when 24 hours had passed
5 | CC(=O)N[C@H]1[C@H]([C@H](O)[C@H](O)CO)OC(O)(C(=O)O)C[C@@H]1O (some centres unmarked) [Crystal of dihydrate, N-Acetylneuraminic acid, reference compound] | gradually discolored to dark brown | – | – | 100.1% | 73.26% | 50.46% | 100.1% | 73.26% | 50.46% | degree of solubility [6]: about 100 g/L
6 | CC(=O)N[C@H]1[C@H]([C@H](O)[C@H](O)CO)OC(O)(C(=O)[O-])C[C@@H]1O.[K+] (some centres unmarked) [Crystal of potassium salt, NeuAc potassium salt anhydrate] | – | excellent solubility | extremely low | – | – | – | 99.90% | 99.73% | 99.63% | pH ([4]; aqueous solution at 100 g/L in terms of NeuAc potassium salt, listed as Example 4): 6.6; pH ([4]; aqueous solution at 100 g/L in terms of NeuAc potassium salt, listed as Example 5): 6.5; Rate of Weight Change ([1]; elapsed time 0 h, Table 10): 0.00%; Rate of Weight Change ([1]; elapsed time 3 h, Table 10): 0.06%; Rate of Weight Change ([1]; elapsed time 7 h, Table 10): 0.00%; Rate of Weight Change ([1]; elapsed time 24 h, Table 10): −0.06%; weight increase due to moisture absorption (in words) ([1]; listed as crystal of NeuAc potassium salt anhydrate): a weight increase was not recognized
